Series [1] addresses T1, γ-secretase (Homo sapiens, UniProt P49768).
T1 construct: endogenous in cells; host or cells: SKNBE2 human neuroblastoma cells (carrying hAPP 695 wild type as substrate)
Description: Screening for γ-secretase-modulating activity: Aβtotal in supernatant of SKNBE2 cells carrying hAPP 695 wild type (Alphalisa). Type of series: cell-based. As to conditions: SKNBE2 human neuroblastoma cells carrying hAPP 695 wild type, overnight incubation, Aβtotal in cell supernatant. The gist of the method:
(§1)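 SKNBE2 neuroblastoma cells expressing wild-type hAPP 695 plated at 10^4 cells/well in Ultraculture with test compound, incubated overnight at 37° C. Aβ42 (C-terminal/N-terminal antibody pair) and Aβtotal (N-terminal/4G8 pair) in supernatant quantified by AlphaLISA. IC50 from 4-parameter fit of percent of compound-free control.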
For orientation: Alpha assays give light when donor and acceptor beads are brought close together.

Series [2] deals with T1, γ-secretase. Description: Screening for γ-secretase-modulating activity: Aβ42 in supernatant of SKNBE2 cells carrying hAPP 695 wild type (Alphalisa). As to conditions: SKNBE2 human neuroblastoma cells carrying hAPP 695 wild type, overnight incubation, Aβ42 in cell supernatant. Type of series: cell-based. Summed up: as §1
The test system of the next series is Aβ38. Description: In vivo efficacy: brain soluble Aβ38 in non-transgenic rodents (MSD electrochemiluminescence multiplex). On the set-up: species or system mouse. As to conditions: Mus musculus, po, 4 h, dose 30 mg/kg oral dosing, brain soluble fraction, animals sacrificed after 4 h, untreated animals (Ctrl) set at 100, read-out: Aβ38 (% vs Ctrl)_Mean. An excerpt:
To determine whether acute administration of an Aβ38 increasing agents would increase Aβ38 levels in vivo, non-transgenic rodents, e.g. mice or rats were used. Animals treated with the Aβ38 increasing agents were examined and compared to those untreated or treated with vehicle and brain levels of soluble Aβ42, Aβ40, Aβ38, and Aβ37 were quantitated by MSD electrochemiluminescence detection technology. Treatment periods varied from hours (h) to days and were adjusted based on the results of the Aβ38 increase once a time course of onset of effect could be established.
A typical protocol for measuring Aβ38 increase in vivo is shown but it is only one of many variations that could be used to optimize the levels of detectable Aβ. For example, Aβ38 increasing agents were formulated in 20% of Captisol® (a sulfobutyl ether of β-cyclodextrin) in water or 20% hydroxypropyl βcyclodextrin. The Aβ38 increasing agents were administered as a single oral dose or by any acceptable route of administration to overnight fasted animals. After 4 h, the animals were sacrificed and Aβ38 levels were analysed.
(§2) Blood was collected by decapitation and exsanguinations in EDTA-treated collection tubes. Blood was centrifuged at 1900 g for 10 minutes (min) at 4° C. and the plasma recovered and flash frozen for later analysis. The brain was removed from the cranium and hindbrain. The cerebellum was removed and the left and right hemisphere were separated. The left hemisphere was stored at −18° C. for quantitative analysis of test compound levels. The right hemisphere was rinsed with phosphate-buffered saline (PBS) buffer and immediately frozen on dry ice and stored at −80° C. until homogenization for biochemical assays.
(§3) Mouse brains from non-transgenic animals were resuspended in 8 volumes of 0.4% DEA (diethylamine)/50 mM NaCl containing protease inhibitors (Roche-11873580001 or 04693159001) per gram of tissue, e.g. for 0.158 g brain, add 1.264 ml of 0.4% DEA. All samples were homogenized in the FastPrep-24 system (MP Biomedicals) using lysing matrix D (MPBio #6913-100) at 6 m/s for 20 seconds. Homogenates were centrifuged at 20800×g for 5 min and supernatants collected. Supernatants were centrifuged at 221.300×g for 50 min. The resulting high speed supernatants were then transferred to fresh eppendorf tubes. Nine parts of supernatant were neutralized with 1 part 0.5 M Tris-HCl pH 6.8 and used to quantify Aβ.
(§4) To quantify the amount of Aβ42, Aβ40, Aβ38, and Aβ37 in the soluble fraction of the brain homogenates, simultaneous specific detection of Aβ42, Aβ40, Aβ38, and Aβ37 was performed using MSD's electro-chemiluminescence multiplex detection technology. In this assay purified monoclonal antibodies specific for Abeta37 (JRD/Aβ37/3), Abeta38 (J&JPRD/Aβ38/5), Abeta40 (JRF/cAβ40/28), and Abeta42 (JRF/cAβ42/26) were coated on MSD 4-plex plates. Briefly, the standards (a dilution of synthetic Aβ42, Aβ40, Aβ38, and Aβ37) were prepared in 1.5 ml Eppendorf tube in Ultraculture, with final concentrations ranging from 10000 to 0.3 pg/m. The samples and standards were co-incubated with Sulfo-tag labelled JRF/rAβ/2 antibody to the N-terminus of Aβ as detector antibody. 50 μl of conjugate/sample or conjugate/standards mixtures were then added to the antibody-coated plate. The plate was allowed to incubate overnight at 4° C. in order to allow formation of the antibody-amyloid complex. Following this incubation and subsequent wash steps the assay was finished by adding read buffer according to the manufacturer's instructions (MesoScale Discovery, Gaitherburg, Md.).
(§5) The SULFO-TAG emits light upon electrochemical stimulation initiated at the electrode. MSD Sector instrument SI6000 was used for signal read-out.
In this model a Aβ38 increase compared to untreated animals would be advantageous, in particular a Aβ38 increase with at least 10%, more in particular a Aβ38 increase with at least 20%. […]

Another series deals with Aβ42. Description: In vivo efficacy: brain soluble Aβ42 in non-transgenic rodents (MSD electrochemiluminescence multiplex). Details: species or system mouse. As to conditions: Mus musculus, po, 4 h, dose 30 mg/kg oral dosing, brain soluble fraction, animals sacrificed after 4 h, untreated animals (Ctrl) set at 100, read-out: Aβ42 (% vs Ctrl)_Mean.
From the text: (§6) To determine whether acute administration of an Aβ42 lowering agent would reduce Aβ42 levels in vivo, non-transgenic rodents, e.g. mice or rats were used. Animals treated with the Aβ42 lowering agent were examined and compared to those untreated or treated with vehicle and brain levels of soluble Aβ42, Aβ40, Aβ38, and Aβ37 were quantitated by Meso Scale Discovery's (MSD) electrochemiluminescence detection technology. Treatment periods varied from hours (h) to days and were adjusted based on the results of the Aβ42 lowering once a time course of onset of effect could be established.
(§7) A typical protocol for measuring Aβ42 lowering in vivo is shown but it is only one of many variations that could be used to optimize the levels of detectable Aβ. For example, Aβ42 lowering compounds were formulated in 20% of Captisol® (a sulfo-butyl ether of β-cyclodextrin) in water or 20% hydroxypropyl βcyclodextrin. The Aβ42 lowering agents were administered as a single oral dose or by any acceptable route of administration to overnight fasted animals. After 4 h, the animals were sacrificed and Aβ42 levels were analysed.
as §2, §3
as §4, with “(Meso Scale” for “(MesoScale”
as §5
In this model a Aβ42 lowering compared to untreated animals would be advantageous, in particular a Aβ42 lowering with at least 10%, more in particular a Aβ42 lowering with at least 20%. […]

The next series relates to Aβ40. Description: In vivo efficacy: brain soluble Aβ40 in non-transgenic rodents (MSD electrochemiluminescence multiplex). The conditions noted are these: Mus musculus, po, 4 h, dose 30 mg/kg oral dosing, brain soluble fraction, animals sacrificed after 4 h, untreated animals (Ctrl) set at 100, read-out: Aβ40 (% vs Ctrl)_Mean. On the set-up: species or system mouse.
From the text: as §6, §7, §2, §3
as §4, with “(Meso Scale” for “(MesoScale”
as §5
The results are shown in Table 5 (dose 30 mg/kg oral dosing) (value for untreated animals as control (Ctrl) was set at 100): […]

The record followed here is patent publication US20150141411A1, “SUBSTITUTED 3,4-DIHYDRO-2H-PYRIDO[1,2-A]PYRAZINE-1,6-DIONE DERIVATIVES USEFUL FOR THE TREATMENT OF (INTER ALIA) ALZHEIMER'S DISEASE” (Janssen Pharmaceuticals, Inc., priority 2012, published 2015).

Usually IC50 stands for the concentration needed to halve the response being measured. Low values mean higher potency, high ones lower potency. Broadly, the melting point is the temperature of the solid-liquid transition. Compound `Cc1cn(-c2ccc3n(c2=O)C[C@@H](C)N(Cc2cn(C)c4cc(F)c(Cl)cc24)C3=O)cn1` [compound 196] showed a melting point of 187 °C. Besides, on γ-secretase [1], it took 7.41 µM to reach half-maximal inhibition (IC50). Also, the concentration for half-maximal inhibition (IC50) against γ-secretase [2] is 0.02 µM.

For the compound `Cc1cn(-c2ccc3n(c2=O)CC(C)N(Cc2c[nH]c4cc(C(F)(F)F)ccc24)C3=O)cn1` (stereo not drawn) [compound 203], the response vs control in vivo at 30 mg/kg was 133% in the series with Aβ38, 67% with Aβ42 and 137% in the series on Aβ40.

On to `Cc1cn(-c2ccc3n(c2=O)CCN(Cc2cccc(Cl)c2)C3=O)cn1` [compound 25], for which the melting point was found to be 176.7 °C. Further, the IC50 at γ-secretase [1] was above 10 µM. In addition, the IC50 on γ-secretase [2] worked out at 1.7 µM.

`Cc1cn(-c2ccc3n(c2=O)CCN(C(C)c2cc(F)cc(C(F)(F)F)c2)C3=O)cn1` (stereo not drawn) [compound 168] yielded a melting point of 225.6 °C. Besides, the concentration for half-maximal inhibition (IC50) on γ-secretase [1] is above 10 µM. On γ-secretase [2], this compound gave an IC50 of 1.41 µM.

In the case of `Cc1cn(-c2ccc3n(c2=O)C[C@@H](C)N(Cc2ccccc2)C3=O)cn1` [compound 124], the melting point was found to be 136.5 °C. The compound also displayed an IC50 against γ-secretase [1] above 10 µM. In addition, 2.34 µM corresponded to half-maximal inhibition against γ-secretase [2] (IC50).

Compound `Cc1cn(-c2ccc3n(c2=O)CCN(CCc2ccc(Cl)cc2)C3=O)cn1` [compound 26] yielded a melting point of 184.4 °C. Moreover, the half-inhibitory concentration (IC50) on γ-secretase [1] is above 10 µM. Besides, the IC50 on γ-secretase [2] was 1.66 µM.

With `Cc1cn(-c2ccc3n(c2=O)C[C@@H](C)N(Cc2cccc(Cl)c2C)C3=O)cn1` [compound 40], the melting point was 182.1 °C. This compound also returned an IC50 on γ-secretase [1] above 10 µM. In addition, the 50% inhibitory concentration (IC50) against γ-secretase [2] is 0.51 µM.

`Cc1cn(-c2ccc3n(c2=O)CCN(CCC2COc4ccccc4O2)C3=O)cn1` (stereo not drawn) [compound 103] yielded a melting point of 176.8 °C. At γ-secretase [1], the concentration for half-maximal inhibition (IC50) was above 10 µM. On γ-secretase [2], this compound gave a half-inhibitory concentration (IC50) of 2.45 µM.
